PMC10082216 (Nature Communications, 2023)
Read-outs that look alike come from different tables or passages of the source.

Legend:
human subjects = conditions: cited from earlier work; for AE (%) / SAE (%): healthy volunteers
[1] = test system: mature stage V gametocytes (NF54 strain); test: microbe, parasite or virus in culture; type: cell-based, Plasmodium falciparum
Description: (§1) Screening was conducted as previously described. Briefly, mature stage V gametocytes (NF54 strain) were cultured in vitro, then exposed to the explored compounds and filtered thereafter through layers of microspheres (microsphiltration)[25],[28]. Stiffening activity was determined by comparing gametocytemia up and downstream from the microsphere layers after filtration of drug-exposed gametocytes in 384-well plates using a vacuum manifold. Gametocytemia was assessed using DNA (Sybr Green) and erythrocyte membrane (CellMask) staining. Killing effect was assessed by MitoTracker staining. We screened two small libraries, specifically the Pathogen Box from the Medicine for Malaria Venture and the Kinase Inhibitors Box from GSK (400 and 350 compounds, respectively, Fig. 1A, B), and furthermore the larger ReFrame repurposing library (12,805 compounds, Fig. 1C).
(§2) The Pathogen Box library (400 compounds, provided by MMV-Medicine for Malaria Ventures, Geneva, Switzerland), the Kinase Inhibitors Box library (350 compounds, provided by GSK-Glaxo SmithKline DDW Unit, Tres Cantos, Spain), and the ReFrame library (12,805 compounds provided by the California Institute for Biomedical Research-Calibr, La Jolla, CA, USA) were used according to the providers’ instructions. DMSO-solubilized compounds (10 mM stock concentration) were loaded in 384-well plates (Seahorse, cat. no. 201035−100). Two columns were left empty for the controls. For each compound, 5 nL were pre-spotted in a single well to reach a final concentration of 1.11 μM. The final volume for each well was 45 μl. Controls were prepared as follows: 22.5 nL of DMSO were loaded in 16 wells as negative controls (0.05% final concentration); 22.5 nL of NITD609 (provided by MMV, Geneva, Switzerland) 1 mM were loaded in 8 wells (0.5 μM final concentration), 17 nL of Calyculin A (Sigma, cat. no. C5552) […] were loaded in 6 wells (75 nM final concentration) and 225 nL of Gentian Violet (MolPort, cat. no. 002-133-551) 10 mM were loaded in the remaining 2 wells (50 μM final concentration). Plates were prepared in triplicate for the Pathogen Box and sextuplicate for the Kinase Inhibitors Box.
(§3) Plasmodium falciparum NF54 strain parasites (used for screening campaign) were cultured at 4% hematocrit in RBCs from informed blood donors (blood group A) as previously described. Parasites were taken from the -80 °C freezer, then rapidly melt for 1 minute in a 37 °C water bath. A saline solution was gently added to avoid the lysis. Firstly, NaCl dissolved at 12% in distilled water (1/5 of the volume measured in the cryovial) and then NaCl dissolved at 1.6% (9 times the cryovial’s volume). After that, fresh RBCs were added to allow parasites re-growth. Infected RBCs were kept in RPMI medium (Sigma-Aldrich, cat. no. R4130), supplemented with 10% of decomplemented human serum, hypoxanthine 50 mg/l (Sigma-Aldrich, cat. no. H9636). Biobank of Castilla y Leon and Centro de Transfusiones de Madrid as providers of human red blood cell concentrates. The production of gametocytes was induced from a 0.5% ring-stage parasitemia (day 0). Medium was changed daily to induce gametocytes differentiation, as previously described. At day 17, gametocytes were concentrated using a density gradient medium (NycoPrep 1.077, Progen cat. no. 1114550)[27]. Parasitemia was adjusted by FACS (SYBR-Green and MitoTracker double staining, 3–5% targeted). Hematocrit was adjusted to 0.5% by adding fresh RBCs and controlled by manual counting in a Neubauer chamber (Celeromics, cat. no. 717810). Finally, the gametocyte suspension was poured (45 μL/well) into the compound-containing 384-well microplate, then incubated 24 hours both for the screening campaign and the dose-response analysis. Both asexual and sexual stages were cultivated in RPMI 1640 supplemented with 25 mM HEPES, 50 mg/L hypoxanthine, 50 μg/mL gentami-cin, 10% pooled heat-inactivated human serum (A^+).

[2] = Hit scoring on safety in human subjects and pharmacokinetics; conditions: for Score (PK): peak plasma concentration vs IC50
Source text: Hits from the ReFrame library were further selected based on safety, preferably oral administration (high score if oral), and potential availability for widespread use.

[3] = test system: mature stage V gametocytes (NF54 strain); test: High-throughput screening: killing effect by MitoTracker staining, primary screening at 1.11 µM and dose-response analysis; type: cell-based, Plasmodium falciparum; conditions: stage V gametocytes NF54, 24 h, dose-response analysis, N/A = not active in dose-response analysis, read-out: Killing IC50
Description: as §1, §2, §3

P.falciparum Dd2 = test system: P.falciparum Dd2; parameters: method as in previously published reports (Table S1 legend); conditions: 72 h; results in previous assays; ref previously published reports (Table S1 legend); read-out: 72-h Dd2-SybrGreen PBFS assay IC50; cited from earlier work
HepG2 = conditions: cited from earlier work
HEK293T = conditions: cited from earlier work
[4] = cited from earlier work
[5] = stage V gametocytes NF54, 24 h, dose-response analysis, N/A = not active in dose-response analysis, read-out: Stiffening IC50 (retention)
[6] = Plasmodium falciparum, NF54, 24 h, read-out: Stiffening IC50 (retention)
[7] = Plasmodium falciparum, NF54, 24 h
[8] = read-out: Cellular cytotoxicity assay IC50, HepG2, 72 h, second value of cell, ref previously published reports (Table S1 legend)
[9] = read-out: Cellular cytotoxicity assay IC50, HEK293T, 72 h, first value of cell, ref previously published reports (Table S1 legend)
[10] = 50 mg single dose, ref NCT01937975
[11] = healthy volunteers, 50 mg single dose, ref NCT01937975
[12] = 90 mg single dose in combination with sofosbuvir 400 mg, ref CTR20160149
[13] = healthy volunteers, 90 mg single dose in combination with sofosbuvir 400 mg, ref CTR20160149
[14] = 100 mg single dose in combination with sofosbuvir 400 mg, ref CTR20160602
[15] = healthy volunteers, 100 mg single dose in combination with sofosbuvir 400 mg, ref CTR20160602

## CC(C)[C@H](C(=O)Nc1ccc(C(=O)NO)cc1)c1ccccc1 [AR-42]
Human subjects; human, in vivo
  rate of life-threatening adverse events: > 25%
[1]; [5]
  IC50: 1.9 µM
[2]
  Score (safety): 0
  Score (PK): 0
[3]
  IC50: 1.5 µM

## CN(C)Cc1c(C(=O)NCCOc2ccc(C(=O)NO)cc2)oc2ccccc12 [Abexinostat]
Human subjects; human, in vivo
  patients with significant adverse events: more than 15%
[1]; [6]
  IC50: 0.64 µM
[2]
  Score (safety): 0
  Score (PK): 0
[3]; [7]
  IC50: 2 µM

## COc1ccc(-c2nc(N3CCOCC3)c3sc(CN(C)c4ncc(C(=O)NO)cn4)cc3n2)cn1 [CUDC-907]
P.falciparum Dd2
  IC50: 0.018 µM
Human subjects; ref NCT02674750 (CUDC-907), NCT02795819 (AR-42)
  rate of life-threatening adverse events: > 25%
[1]; [6]
  IC50: 1.86 µM
[2]
  Score (safety): 0
  Score (PK): 0
HepG2; [8]
  IC50: 0.003 µM
[3]; [7]
  IC50: 3.32 µM
HEK293T; [9]
  IC50: 0.03 µM

## COC(=O)N[C@H](C(=O)N1CCC[C@H]1c1nc(-c2ccc(-c3ccc(-c4c[nH]c([C@@H]5CCCN5C(=O)[C@@H](NC(=O)OC)C(C)C)n4)cc3)cc2)c[nH]1)C(C)C [Daclatasvir]
[4]; human, in vivo, 30 mg
  Cmax: 945 nM
  t1/2: 12.4 h

## COC(=O)N[C@H](C(=O)N1CCC[C@H]1c1nc(-c2ccc3c(c2)O[C@@H](c2ccccc2)n2c-3cc3cc(-c4c[nH]c([C@@H]5CCCN5C(=O)[C@@H](NC(=O)OC)C(C)C)n4)ccc32)c[nH]1)C(C)C [Elbasvir]
Human subjects; [10]
  AE (%): 37.5%
  SAE (%): 0%
[4]; [11]
  Cmax: 163 nM
  t1/2: 25 h

## CCN(CC)Cc1ccc2cc(COC(=O)Nc3ccc(C(=O)NO)cc3)ccc2c1.Cl.O [Givinostat hydrochloride]
Human subjects; human, in vivo
  patients with significant adverse events: more than 15%
[1]; [5]
  IC50: 1.4 µM
[2]
  Score (safety): 0
  Score (PK): 0
[3]
  IC50: 2.1 µM

## COC(=O)N[C@H](C(=O)N1CC2(CC2)C[C@H]1c1ncc(-c2ccc3c(c2)C(F)(F)c2cc(-c4ccc5nc([C@@H]6[C@H]7CC[C@H](C7)N6C(=O)[C@@H](NC(=O)OC)C(C)C)[nH]c5c4)ccc2-3)[nH]1)C(C)C [Ledipasvir]
Human subjects
  safety in pregnant women: can be safely administered to pregnant women
Human subjects; [12]
  AE (%): 42.9%
  SAE (%): 0%
[4]; [13]
  Cmax: 362 nM
  t1/2: 39.9 h

## CS(=O)(=O)c1ccc(-c2cnc(N)c(-c3ccc(C(F)(F)F)nc3)c2)cc1 [MMV-390048]
P.falciparum Dd2
  IC50: 0.229 µM
[1]; [6]
  IC50: 3.5 µM
[1]; Plasmodium falciparum, NF54, read-out: IC50 (killing and stiffening, given as range)
  IC50: 3.5 to 3.9 µM
[2]
  Score (safety): 3
  Score (PK): 2 (Peak plasma concentration between 1/3 IC50 and IC50 (Score = 2))
[3]; [7]
  IC50: 3.86 µM
[3]
  IC50: 3.9 µM
[4]; humans, highest 120 mg dose, ref 37 (McCarthy et al 2020)
  serum peak concentration: 2.8 µM

## COC(=O)N[C@H](C(=O)N1CCC[C@H]1C(=O)Nc1ccc([C@@H]2CC[C@@H](c3ccc(NC(=O)[C@@H]4CCCN4C(=O)[C@@H](NC(=O)OC)C(C)C)cc3)N2c2ccc(C(C)(C)C)cc2)cc1)C(C)C [Ombitasvir]
[4]; human, in vivo
  t1/2: 21 to 25 h

## N=C(N)c1ccc(C=C2c3ccccc3-c3ccccc32)cc1 [Paranyline]
P.falciparum Dd2
  IC50: 1.87 µM
[1]; [6]
  IC50: 3.2 µM
[2]
  Score (safety): 0
  Score (PK): 0
HepG2; [8]
  IC50: 0.65 µM
[3]; [7]
  IC50: 1.9 µM
HEK293T; [9]
  IC50: 1.42 µM

## CCCCCCCCN=c1ccn(CCCCCCCC)cc1 [Pirtenidine]
P.falciparum Dd2
  IC50: 0.615 µM
[1]; [5]
  IC50: 3.65 µM
[2]
  Score (safety): 0
  Score (PK): 0
HepG2
  IC50: 0.285 µM
[3]
  IC50: 2.79 µM
HEK293T
  IC50: 1.48 µM

## C[C@@H]1O[C@@H](O[C@@H]2C=C3CC[C@@H]4[C@H](CC[C@]5(C)[C@@H](c6ccc(=O)oc6)CC[C@]45O)[C@@]3(C)CC2)[C@H](O)[C@H](O)[C@H]1O [Proscillaridin]
P.falciparum Dd2
  IC50: 9.95 µM
[1]; [6]
  IC50: 0.08 µM
[2]; human
  Score (safety): 0
[2]
  Score (PK): 0
HepG2; [8]
  IC50: 0.014 µM
[3]; Plasmodium falciparum
  IC50: 0.3 µM
HEK293T; [9]
  IC50: 0.009 µM

## COC[C@H]1C[C@@H](c2ncc(-c3ccc4c(c3)COc3cc5c(ccc6nc([C@@H]7CC[C@H](C)N7C(=O)[C@@H](NC(=O)OC)C(C)C)[nH]c65)cc3-4)[nH]2)N(C(=O)[C@H](NC(=O)OC)c2ccccc2)C1 [Velpatasvir]
Human subjects; [14]
  AE (%): 42.9%
  SAE (%): 0%
[4]; [15]
  Cmax: 584 nM
  t1/2: 16.8 h
